# Laboratory results taken from patent US6458862B1, “Foaming agents” (priority 1998, dated 2002).
# Columns and labels:
# rat [1] = assay: Acute toxicity in the oral rat, LD50; format: in vivo
# rat [2] = assay: Acute toxicity in the rat by inhalation, LD50; format: in vivo; details: 4 hours
# Inflammability in air = format: physicochemical; details: marked § flammable
Compound,"Acute toxicity in the oral rat, LD50 (rat [1]) [ppmv/4 hours]","Acute toxicity in the rat by inhalation, LD50 (rat [2]) [ppmv/4 hours]","Inflammability in air, % volume (Inflammability in air)"
"FC(Cl)(Cl)Cl [CFC 11, trichloro-fluoromethane]",>1000,26200,–
"FC(F)OC(F)(F)C(F)(F)OC(F)F [HCF2OCF2CF2OCF2H, 1-difluoromethoxy-1,1,2,2-tetrafluoroethyl difluoromethyl ether]",>5000,>32000,–
"FC(F)OC(F)(F)OC(F)F [HCF2OCF2OCF2H, difluoromethoxy-bis(difluoromethyl ether)]",>5000,>32000,–
"CC(F)(Cl)Cl [HCFC 141b, 1,1-dichloro-1-fluoroethane]",>5000,62000,7.6-17.7§ % volume
